Measured values reported in article PMC7504215, “Copper(II) Complexes with Mixed Heterocycle Ligands as Promising Antibacterial and Antitumor Species” (Molecules, 2020).

Key:
[1] = Superoxide scavenging ability by EPR spectroscopy; conditions: 2.5 μM complex in DMSO, O2− 10, 20 and 30 µM
Experimental: The superoxide scavenging ability of the complexes was tested using the KO2 compound as a superoxide source combined with EPR spectroscopy. […] The KO2 was dissolved by complexation with dibenzo-18-crown-6-ether.

[2] = test system: Saccharomyces cerevisiae (wild-type, WT) laboratory strain BY4741; assay: Yeast cell proliferation (toxicity); format: cell-based; conditions: for Effect on cell proliferation: 0.1–0.2 mM final concentration in liquid YPD, compared to cells grown without compounds; for IC50: S. cerevisiae BY4741 (WT), liquid YPD
Experimental: (§1) The Saccharomyces cerevisiae laboratory strain BY4741 (MATa; his3Δ1; leu2Δ0; met15Δ0; ura3Δ0), considered wild type (WT), and the isogenic strains sod1Δ and sod2Δ lacking the genes SOD1 (encoding Cu/Zn-superoxide dismutase) and SOD2 (encoding Mn-superoxide dismutase) were purchased from EUROSCARF (Frankfurt, Germany). Cells were maintained and manipulated and grown in YPD medium (1% w/v yeast extract, 2% w/v peptone, 2% w/v glucose; 2% w/v agar was added for solid media). Complexes were added to autoclaved media from DMSO sterile stocks (10 mM). To determine the effect of compounds on yeast growth, a fresh overnight pre-culture was 10^3-fold diluted in YPD and incubated (200 rpm, 30 °C) until the culture reached a density of 5 × 10^5 cells/mL. At this point, the compounds were added to the desired concentrations, and cell proliferation was monitored at 660 nm in a 96-well multi-scanner autoreader plate reader equipped with a thermostat and shaker (Varioskan Thermo Fischer Scientific, Vantaa, Finland). The uptake of compounds by yeast cells was determined indirectly by measuring the increase of the total cellular copper content normalized to the total cellular protein determined by Bradford assay. All determinations were done on three biological replicates. The IC50 was calculated by nonlinear regression analysis using the Graphpad Prism software.

BJ cells = assay: Phalloidin staining and cell imaging (cytoskeleton, nucleus); format: cell-based, Human; conditions: 24 h, 6 μg/mL
Experimental: Cytoskeleton actin filaments of BJ and B16 cells were stained with phalloidin-FITC (Sigma-Aldrich, USA) according to the manufacturer’s protocol. Briefly, cells were washed with PBS (5 min, 3 times), fixed for 5 min with 3% paraformaldehyde, washed three times with PBS, permeabilized with 0.1% Triton X-100 in PBS for 15 min, washed three times with PBS, stained with 20 μg mL^−1 phalloidin-FITC at room temperature for 1 h and washed again three times with PBS. Cell nucleus was stained with 8 μM of Hoechst 33342 solution for 10 min, washed three times with PBS and finally, mounted and sealed on glass slides with FluorSave™ Reagent (Merck Millipore, Germany). The fluorescence images were acquired using an Andor DSD2 Confocal Unit (Andor, Ireland), mounted on an epifluorescence microscope, Olympus BX-51 (Olympus, Germany), equipped with a 40x and 100x objective and an appropriate DAPI/Hoechst filter cube (excitation filter 390/40 m, dichroic mirror 405 nm and emission filter 452/45 nm) and GFP/FITC filter cube (excitation filter 466/40 nm, dichroic mirror 488 nm and emission filter 525/54 nm).

P. aeruginosa 9027 = assay: MBEC assay, micro-titer method (biofilm); format: cell-based, Pseudomonas aeruginosa
Experimental: (§2) The antibacterial assays were performed on Gram-negative (Escherichia coli ATCC 25922, E. coli 5, Pseudomonas aeruginosa ATCC 27853, P. aeruginosa ATCC 9027) and Gram-positive (Staphylococcus aureus ATCC 25923, S. aureus ATCC 6538, MRSA (Meticillin-resistant S. aureus) 388, ATCC, American Type Culture Collection) bacterial strains. Microbial suspensions (1.5 × 10^8 CFU/mL; colony forming units (CFU)) corresponding to 0.5 McFarland density obtained from 15 to 18-h bacterial cultures developed on solid media were used. The antimicrobial activity was tested on Mueller–Hinton agar medium.
(§3) The assessment of the complexes’ influence on the microbial ability to colonize an inert substratum with the establishment of the minimal biofilm eradication concentration (MBEC) was performed by the micro-titer method, following previously described protocols. The absorbance at 490 nm was measured with an Apollo LB 911ELISA (Berthold Technologies GmbH & Co. KG, Waltham, MA, USA) reader. All experiments were performed in triplicates.

P. aeruginosa 27853 = assay: MBEC assay, micro-titer method (biofilm); format: cell-based, Pseudomonas aeruginosa
Experimental: as §2, §3

sod2Δ cells = format: cell-based, Saccharomyces cerevisiae; conditions: sod2Δ cells lacking Mn-superoxide dismutase Sod2
Experimental: as §1

sod1Δ cells = format: cell-based, Saccharomyces cerevisiae; conditions: sod1Δ cells lacking Cu/Zn-superoxide dismutase Sod1
Experimental: as §1

S. aureus 25923 = assay: MBEC assay, micro-titer method (biofilm); format: cell-based, Staphylococcus aureus
Experimental: as §2, §3

| Compound | Superoxide scavenging (EPR signal decrease) [1] | Effect on cell proliferation [2] | IC50 [2] [µM] | Cell morphology (cytoskeleton and nucleus) (BJ cells) | MBEC value (P. aeruginosa 9027) [mM] | MBEC value (P. aeruginosa 27853) [mM] | Toxicity compared with WT yeast (sod2Δ cells) | Toxicity compared with WT yeast (sod1Δ cells) | MBEC value (S. aureus 25923) [mM] |
| --- | --- | --- | --- | --- | --- | --- | --- | --- | --- |
| Cc1cc(-c2ccccc2)nc2ncnn12.[Cu+2].[O-][Cl+3]([O-])([O-])[O-].[O-][Cl+3]([O-])([O-])[O-].c1cnc2c(c1)ccc1cccnc12.c1cnc2c(c1)ccc1cccnc12 [(2), [Cu(phen)2(pmtp)](ClO4)2] | trap the superoxide radicals | did not significantly affect cell proliferation | 580 ± 210 | affects the cell morphology | 0.01 | 0.09 | even more toxic | even more toxic | 0.01 |
| Cc1cc(-c2ccccc2)nc2ncnn12.[Cu+2].[O-][Cl+3]([O-])([O-])[O-].[O-][Cl+3]([O-])([O-])[O-].c1ccc(-c2ccccn2)nc1.c1ccc(-c2ccccn2)nc1 [(1), [Cu(bpy)2(pmtp)](ClO4)2] | trap the superoxide radicals | did not significantly affect cell proliferation | 480 ± 160 | does not alter its morphology | 0.20 | 0.40 | even more toxic | even more toxic |  |
